Reference: US11786494B2, “Methods of modulation of branched chain acids and uses thereof” (Baylor College of Medicine, priority 2009, dated 2023)
Entries after “also recorded” stand apart in the source; their conditions may differ.

Key:
[1] = tested on: plasma branched chain amino acids (BCAA) and branched chain ketoacids (BCKA); assay: Clinical protocol: plasma BCAA and BCKA before and after sodium phenylbutyrate; format: in vivo, human; settings: day 3 vs baseline, listed as sodium phenylbutyrate
Description: FIG. 1 is a graph representing levels of branched chain amino acids (BCAAs) in control subjects (N=3) at baseline and then after treatment with sodium phenylbutyrate (PBA). Abbreviations: Ile=Isoleucine; Leu=Leucine; Val=Valine. *: p<0.05. Values are average of three time points after two days of treatment. Study subjects received PBA at the dose of 10 gram/m^2/day divided in four equal doses every six hours for three days. The subjects received a constant protein intake of 0.6 grams/kg/day as a combination of BCAA-free formula and whole protein. Measurements were performed on day three at three different time points separated by 30 minutes in the fed state. Note that y-axis represents concentrations comparing baseline to three days of treatment.
FIG. 2 is a graph representing levels of branched chain ketoacids (BCKAs) in control subjects (N=3) at baseline and then after treatment with sodium phenylbutyrate. Abbreviations: KMV=α-keto-β-methylvalerate; KIC=α-ketoisocaproate; KIV=α-ketoisovalerate. *: p<0.05. Values are average of three time points after two days of treatment. Subjects were all on the same steady state protein intake for three days at testing. Study subjects received PBA at the dose of 10 gram/m^2/day divided in four equal doses every six hours for three days. The subjects received a constant protein intake of 0.6 grams/kg/day as a combination of BCAA-free formula and whole protein. Measurements were performed on day three at three different time points separated by 30 minutes in the fed state. Note that y-axis represents concentrations comparing baseline to three days of treatment.
FIG. 3 is a graph representing levels of branched chain amino acids (BCAAs) in MSUD patients (N=5) at baseline and then after treatment with sodium phenylbutyrate. Values are average of three time points after two days of treatment. Patients were all on steady state protein intake for three days at testing. Study subjects received PBA at the dose of 10 gram/m^2/day divided in four equal doses every six hours for three days. The subjects received a constant protein intake of 0.6 grams/kg/day as a combination of BCAA-free formula and whole protein. Measurements were performed on day three at three different time points separated by 30 minutes in the fed state. Abbreviations: Ile=Isoleucine; Leu=Leucine; Val=Valine. *: p<0.05. Note that y-axis represents concentrations comparing baseline to three days of treatment.
FIG. 4 is a graph representing levels of branched chain ketoacids (BCKAs) in MSUD patients (N=5) at baseline and then after treatment with sodium phenylbutyrate. Values are average of three time points after two days of treatment. Patients were all on steady state protein intake for three days at testing. […]

BCKDC = target: T1, BCKDC (Homo sapiens, UniProt P12694+P21953); assay: Leucine oxidation in lymphoblast cells in presence of CIC; format: cell-based; parameters: Transformed lymphoblast cell lines were available from all 5 MSUD patients and from 2 controls to measure BCKDC activity; endogenous in cells; settings: control lymphoblasts, 1 mM phenylbutyrate 48 h, 1 mM CIC in the assay
T1 sequence (P12694 46-445): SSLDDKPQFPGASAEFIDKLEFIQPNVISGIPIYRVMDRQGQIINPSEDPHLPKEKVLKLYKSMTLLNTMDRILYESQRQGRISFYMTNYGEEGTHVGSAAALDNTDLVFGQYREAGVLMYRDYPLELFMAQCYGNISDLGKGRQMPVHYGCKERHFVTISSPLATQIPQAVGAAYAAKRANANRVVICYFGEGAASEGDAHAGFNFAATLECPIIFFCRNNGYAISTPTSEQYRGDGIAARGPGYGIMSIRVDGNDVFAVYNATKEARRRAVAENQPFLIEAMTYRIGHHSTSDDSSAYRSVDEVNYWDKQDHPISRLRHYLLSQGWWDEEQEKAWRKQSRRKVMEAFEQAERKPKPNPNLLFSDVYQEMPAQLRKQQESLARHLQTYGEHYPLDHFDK
T1 sequence (P21953 51-392): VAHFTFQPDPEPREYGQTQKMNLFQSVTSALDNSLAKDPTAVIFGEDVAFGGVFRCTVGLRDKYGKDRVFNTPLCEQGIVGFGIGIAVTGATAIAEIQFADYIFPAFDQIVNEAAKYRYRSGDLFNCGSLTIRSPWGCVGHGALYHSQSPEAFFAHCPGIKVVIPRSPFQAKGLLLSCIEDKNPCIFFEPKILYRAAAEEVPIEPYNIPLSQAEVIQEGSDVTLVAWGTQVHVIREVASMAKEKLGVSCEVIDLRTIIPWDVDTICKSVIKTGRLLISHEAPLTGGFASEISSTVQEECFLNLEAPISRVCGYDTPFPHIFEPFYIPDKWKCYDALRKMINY
Experimental: FIGS. 8A-8C. FIGS. 8A and 8B show leucine oxidation in presence of CIC in lymphoblast cells from control subjects (C-660, C-661) and MSUD patients (P-1, -2, -3, -4, -5) untreated or treated with 1 mM phenylbutyrate for 48 h. Leucine oxidation was measured by using radioactive assay as described in Materials and Methods and is expressed in pmol CO2 released/min/mg protein. CIC was added to all reactions in 1 mM concentration. Values are means±SD (n=3), * p≥0.05, **p≥0.01. […] Images are representative of two independent experiments.
Because phenylbutyrate affects E1α phosphorylation state in vivo (see FIG. 5), leucine oxidation was measured in the same cell lines as in FIG. […] with CIC in the assay. […] Changes in BCAT isoenzyme activity also impacts BCKA production, in specific cases. All patient cell lines accumulated more KIC than observed in control cell lines.

[2] = MSUD patients (N=5), three of five responders, 10 gram/m^2/day
[3] = healthy control subjects (N=3), 10 gram/m^2/day in four doses

leucine oxidation (BCKDC): increased
SMILES: O=C([O-])CCCc1ccccc1.[Na+] [phenylbutyrate, sodium 4-phenylbutyrate]
plasma BCAA levels [1, 2]: reduced; also recorded: decreased their BCAAs
plasma BCKA levels [1, 2]: significantly decreased; also recorded: decreased their BCKAs
plasma BCAA levels (isoleucine, leucine, valine) [1, 3]: reduced; also recorded: significantly decreased levels
plasma BCKA levels (KMV, KIC, KIV) [1, 3]: reduced; also recorded: decreased their BCKAs
